A short description of data set [1]: Toxicity in BALB/c mouse allografted with mouse CT26 cells assessed as change in body weight at 75 mg/kg, po administered once a day measured after 14 days. It is filed as organism-based. As to conditions: in vivo, 336 h, time 14 day.
Data set [2] has as its target Prostaglandin E2 receptor EP2 subtype (Homo sapiens, UniProt P43116). As to the kind of experiment: Antagonist activity at human EP2 receptor transfected in CHO/Galpha16 cells preincubated for 15 mins followed by PGE2 addition by calcium flux assay. It is filed as functional, cell-based. On the technique in general: Calcium flux is commonly read through the fluorescence of an indicator in the cells.

Data set [3] is described as follows: Metabolic stability in human liver microsomes assessed as parent compound remaining at 10 uM measured after 60 mins. It counts as ADME, Microsome. As to conditions: read-out: Stability. (Liver microsomes are vesicles of endoplasmic reticulum, rich in cytochrome P450 enzymes.)
The target of data set [4] is T1, CYP1A2 (Homo sapiens, UniProt P05177).
T1 sequence (P05177 whole entry): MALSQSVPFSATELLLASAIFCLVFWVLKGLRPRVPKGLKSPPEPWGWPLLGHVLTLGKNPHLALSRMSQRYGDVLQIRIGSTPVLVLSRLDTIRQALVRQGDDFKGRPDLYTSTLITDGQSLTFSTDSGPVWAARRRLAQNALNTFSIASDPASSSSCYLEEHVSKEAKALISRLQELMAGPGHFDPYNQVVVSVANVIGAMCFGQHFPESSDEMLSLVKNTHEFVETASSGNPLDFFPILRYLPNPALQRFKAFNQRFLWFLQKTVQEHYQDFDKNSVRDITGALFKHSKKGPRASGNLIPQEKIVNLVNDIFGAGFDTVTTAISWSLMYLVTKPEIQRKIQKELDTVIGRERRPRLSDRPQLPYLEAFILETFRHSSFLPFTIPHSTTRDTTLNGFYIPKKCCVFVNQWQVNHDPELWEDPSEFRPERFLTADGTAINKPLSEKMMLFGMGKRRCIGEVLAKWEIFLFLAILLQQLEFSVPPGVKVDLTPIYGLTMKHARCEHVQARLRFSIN
Kind of data set: Inhibition of CYP1A2 (unknown origin) at 20 uM. It counts as ADME.

Data set [5] in a line: Cmax in BALB/c mouse at 1 mg/kg, iv measured upto 24 hrs by LC-MS/MS analysis. It is filed as ADME, organism-based. Further details: time < 24 hrs, dose 1 mg/kg, route iv. As to conditions: in vivo.
A short description of data set [6]: Toxicity in BALB/c mouse allografted with mouse CT26 cells assessed as change in body weight at 75 mg/kg, po administered once a day for 14 days in presence of anti-PD-1 antibody. It is filed as organism-based. As to conditions: in vivo, 336 h, time 14 day.
Data set [7] is described as follows: Plasma protien binding of the compound incubated for 24 hrs by equilibrium dialysis method. It counts as ADME, cell-free. As to conditions: read-out: PPB (converted).
In data set [8] the test system is CT26. Kind of data set: Antitumor activity against mouse CT26 cells allografted in BALB/c mouse assessed as median survival period at 75 mg/kg, po administered once a day for 14 days in presence of anti-PD-1 antibody by Kaplan-Meier method (reference value: 15 days). It is filed as functional. As to conditions: time 14 day.
Data set [9] deals with CT26. Kind of data set: Antitumor activity against mouse CT26 cells allografted in BALB/c mouse assessed as median survival period at 75 mg/kg, po administered once a day for 14 days by Kaplan-Meier method (reference value: 15 days). It counts as functional. As to conditions: time 14 day.
Data set [10] has as its system EMT6. As to the kind of experiment: Cytotoxicity against mouse EMT6 cells assessed as reduction in cell viability incubated for 72 hrs by CCK-8 assay. As to conditions: EMT6, 72 h. (Tetrazolium assays rely on reduction of a dye to a coloured formazan, in cell work by metabolically active cells.)
Data set [11] concerns Panc02. As to the kind of experiment: Cytotoxicity against mouse Panc02 cells assessed as reduction in cell viability incubated for 72 hrs by CCK-8 assay. As to conditions: Panc02, 72 h.
Data set [12] addresses Prostaglandin E2 receptor EP4 subtype (Homo sapiens, UniProt P35408). Kind of data set: Antagonist activity at human EP4 receptor transfected in CHO/Galpha16 cells preincubated for 15 mins followed by PGE2 addition by calcium flux assay. It is filed as functional, cell-based.
The nature of data set [13]: Cytotoxicity against HEK293 cells assessed as reduction in cell viability incubated for 72 hrs by CCK-8 assay. It counts as toxicity, cell-based. As to conditions: human.
The test system of data set [14] is 3LL cell line. As to the kind of experiment: Cytotoxicity against mouse 3LL cells assessed as reduction in cell viability incubated for 72 hrs by CCK-8 assay.
Data set [15] deals with CT26. As to the kind of experiment: Cytotoxicity against mouse CT26 cells assessed as reduction in cell viability incubated for 72 hrs by CCK-8 assay. As to conditions: CT26, 72 h.

Chain of Prostaglandin E2 receptor EP2 subtype (P43116 whole entry): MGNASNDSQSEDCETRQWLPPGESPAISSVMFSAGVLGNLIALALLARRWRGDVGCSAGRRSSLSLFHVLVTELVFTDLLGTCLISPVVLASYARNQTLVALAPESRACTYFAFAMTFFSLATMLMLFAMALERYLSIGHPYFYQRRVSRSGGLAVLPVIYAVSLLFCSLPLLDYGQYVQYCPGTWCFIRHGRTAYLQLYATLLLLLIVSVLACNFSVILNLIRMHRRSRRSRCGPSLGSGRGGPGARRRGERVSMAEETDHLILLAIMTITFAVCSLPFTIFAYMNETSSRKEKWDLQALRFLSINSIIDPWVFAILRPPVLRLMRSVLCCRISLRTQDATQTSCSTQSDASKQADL
Chain of Prostaglandin E2 receptor EP4 subtype (P35408 whole entry): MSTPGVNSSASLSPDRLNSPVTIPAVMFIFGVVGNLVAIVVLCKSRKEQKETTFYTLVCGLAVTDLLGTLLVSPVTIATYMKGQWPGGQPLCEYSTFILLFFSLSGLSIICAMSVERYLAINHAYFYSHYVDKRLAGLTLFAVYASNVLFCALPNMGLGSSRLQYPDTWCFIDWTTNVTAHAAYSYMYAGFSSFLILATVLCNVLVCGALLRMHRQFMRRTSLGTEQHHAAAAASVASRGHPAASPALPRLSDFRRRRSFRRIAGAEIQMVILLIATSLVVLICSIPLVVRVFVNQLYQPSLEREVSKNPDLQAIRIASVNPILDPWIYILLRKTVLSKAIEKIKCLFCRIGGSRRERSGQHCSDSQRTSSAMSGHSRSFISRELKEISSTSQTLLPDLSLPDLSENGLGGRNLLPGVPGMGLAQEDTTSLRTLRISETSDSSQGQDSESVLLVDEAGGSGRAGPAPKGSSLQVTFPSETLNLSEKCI

`O=C(O)c1ccc(CNC(=O)c2c(Cc3ccc(F)cc3)sc3c2CCOC3)cc1`: the Activity entry in [1] and in data set [6] was “Non-Toxic” each time. In data set [2], the IC50 was over 10 µM. The remaining at 1 h, 10 µM in [3] worked out at 89.8%. In [4], this molecule displayed an inhibition at 20 µM of 46%. For the same molecule, the Cmax in [5] came to 2840 ng/mL. The fraction unbound at 24 h in data set [7] is 0.062. In addition, the figures for the MST in data set [8] and in data set [9] were 41 days and 26 days, respectively.
For the molecule `C[C@H](NC(=O)c1c(Cc2cccc(C(F)(F)F)c2)sc2c1CCOC2)c1ccc(C(=O)O)cc1`, the half-maximal inhibitory concentration (IC50) in [2] is over 10 µM; in data set [10] it was over 100 µM; in data set [11] it was over 100 µM; in data set [12], 0.0017 µM; in [14], over 100 µM; in data set [15], over 100 µM. In addition, the remaining at 1 h, 10 µM in data set [3] was found to be 84.6%. The molecule further had an inhibition at 20 µM in data set [4] of 60%. This molecule also gave a Cmax in data set [5] of 2800 ng/mL. Further, the fraction unbound at 24 h in data set [7] was 0.034. Besides, the IC50 at 72 h in [13] is over 100 µM.

As usually defined, the IC50 is the concentration that gives 50% inhibition. The term inhibition denotes the change of the read-out against control, counted positive when it falls. High values mean a strong effect, low ones a weak effect. As a reminder, the Cmax is the maximum level reached in the sampled fluid or tissue.
